Experimental findings from the METLIN SMRT retention time set (Domingo-Almenara et al. 2019) are described below.

The nature of this series: gradient 5% acetonitrile 3 min, to 50% in 2 min, to 85% in 15 min, held 3 min, 100 µL/min. The settings on record: column: Zorbax Extend-C18 2.1 x 50 mm; eluents: water / acetonitrile, 0.1% formic acid. In short, it runs like this:
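The mobile phases were water and acetonitrile, each with 0.1% formic acid, pumped at 100 μL/min through a Zorbax Extend-C18 column (2.1 × 50 mm, 1.8 μm). Pure standards were injected as mixtures of ~100 molecules and detected by a quadrupole time-of-flight mass spectrometer in positive and negative ionization mode. Retention time came from computationally picked adduct peaks, each inspected by hand.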
In turn, `COc1cc(NC(=O)Cn2c(=O)n(-c3ccc(C)cc3)c(=O)c3c2cc(C)n3C)cc(OC)c1` registered an RP-LC retention time of 866 s.

For `O=C(CCc1conc1-c1ccc(F)cc1)NCc1ccccc1`, the RP-LC retention time turned out to be 865 s.

Turning to `COc1nn(C)cc1C(=O)NCCn1nc(-c2cccs2)ccc1=O`, the RP-LC retention time was 605 s.

With `O=C(Nc1ccc(F)c(Cl)c1)C1CCCN(c2ncc(-c3ccc(F)cc3)cn2)C1` (stereo not given), the RP-LC retention time amounted to 1230 s. To `O=C(Cc1cccs1)Nc1ccc(-c2nnc3n2CCCC3)cc1` belongs 640 s. To `CC1(C(=O)NCc2ccc3c(c2)OCO3)CCN(C(=O)c2ccc(C#N)cc2)CC1` belongs 754 s.

In turn, `CCOC(=O)CSc1nnc(NC(=O)COc2ccccc2)s1` displayed an RP-LC retention time of 798 s. Regarding `O=C(Nc1ccc2c(c1)OCO2)C(=O)c1cccn1Cc1ccc(F)cc1`, the RP-LC retention time worked out at 1050 s.

In the case of `CCCCCOC(=O)c1ccc(Nc2nc(C(=O)OCC)nc3ccccc23)cc1`, the RP-LC retention time turned out to be 1160 s. To `Cc1nc(-c2ccc3c(c2)CCN3C(=O)COc2ccc(F)cc2)cs1` belongs 960 s; to `COc1cccc(S(=O)(=O)N2CCC(n3cnnc3-c3ccccc3)CC2)c1`, 775 s; to `CCCN(CC1CC1)C(=O)CCC1CCCN(S(=O)(=O)c2ccc(C)cc2)C1` (stereo not given), 1120 s. The figure for `O=S(=O)(c1ccccc1)N1CCOc2ccccc21` is 974 s. To `Cc1cccc(-n2ccn(CC#N)c(=O)c2=O)c1C` belongs 639 s. With `CC(CNC(=O)Cc1csc2nc(-c3ccccc3)cn12)c1ccccc1` (stereo not given), the RP-LC retention time was 841 s. Compound `CC(C)(C)n1nnnc1C1CC2(CCOCC2)C(=O)N1Cc1cc(F)ccc1F` (stereo not given) gave an RP-LC retention time of 793 s.

On to `CCc1nc(-c2csc(S(=O)(=O)N3CCCC(C(=O)NC4CCCCCCC4)C3)c2)no1` (stereo not given), for which the RP-LC retention time turned out to be 1150 s. As for `O=C(NCC1CCOCC1)Nc1ccccc1C(F)(F)F`, the RP-LC retention time was 734 s. To `CCOc1ccc(CCNc2nc(-c3ccc(OC)c(OC)c3)no2)cc1` belongs 967 s.

For the compound `CCCS(=O)(=O)c1nc2ccc(NS(=O)(=O)Cc3ccc(Cl)cc3)cc2s1`, the RP-LC retention time turned out to be 953 s. For `Cc1nc2cc(-c3ccc(Cl)cc3)nn2c(C)c1CCC(=O)N1CCN(c2ccccn2)CC1`, the RP-LC retention time was 727 s. The figure for `CC1CCCN(S(=O)(=O)c2ccc(-n3cnc(C(=O)NCC4CC4)c3)nc2)C1` (stereo not given) is 902 s; for `Cc1c(Cl)cccc1N1C(=O)CN(S(C)(=O)=O)CC1(C)C(=O)NC1CCCCC1` (stereo not given) it is 892 s; for `Cc1ccc2[nH]cc(CCN3CC(C(=O)Nc4nnc(C)s4)CC3=O)c2c1` (stereo not given) it is 785 s. Take `COC(=O)c1ccc(NC(=O)Cn2cnc3c(sc4nc(-c5ccccc5)ccc43)c2=O)cc1`: the RP-LC retention time came out at 985 s. To `CCOC(=O)c1ccc(NC(=O)c2cc3ccccc3c(=O)s2)cc1` belongs 947 s; to `CC(NC(=O)c1ccco1)c1nc2ccccc2n1CC(=O)N(c1ccccc1)C(C)C` (stereo not given), 725 s. Compound `O=S(=O)(c1ccc(Cl)s1)N1CCN(c2ccc(-n3ccnc3)nn2)CC1` returned an RP-LC retention time of 593 s.

As to `O=C(CN1CC=C(c2cnn(-c3ccccc3)c2)CC1)NCc1ccccn1`, the RP-LC retention time was found to be 594 s. Turning to `COc1cccc(N2CCN(c3ccnc(SCC(=O)Nc4ccc(F)cc4)n3)CC2)c1`, the RP-LC retention time came out at 768 s. To `CN(C)c1ccc(CNc2ccc(-c3nc(-c4cccc(F)c4)no3)cn2)cc1` belongs 912 s; to `Cc1nn(C(C)C)c(C)c1-c1cc(C(=O)O)[nH]n1`, 617 s; to `Cc1ccc(Cl)cc1NC(=O)N1CCN(c2ccc(=O)n(-c3ccccc3)n2)CC1`, 838 s. To `COc1cccc(CNC(=O)c2cc(NC(C)=O)cc3nc(C)ccc23)c1OC` belongs 594 s. To `Cc1nc(-c2ccc(N3CCN(C(=O)COc4ccc(F)cc4)CC3)nc2)sc1C` belongs 880 s; to `CCc1ccc(NC(=O)CSc2cc(N3CCCCC3C)ncn2)cc1` (stereo not given), 1100 s; to `COc1ccc(OC)c(CNC(=O)C2CCCN2S(=O)(=O)c2cc3c(cc2C)NC(=O)CO3)c1` (stereo not given), 730 s. As for `Cc1nc(C)c(C(=O)N2CCC(C(=O)N3CCCCCCNC(=O)CC3)CC2)s1`, the RP-LC retention time was determined as 602 s.

In turn, `O=C(NCc1ccc2c(c1)N(C(=O)c1ccc(Cl)cc1)CC2)C1CC1` yielded an RP-LC retention time of 824 s. To `CC(C)c1csc(-c2csc(S(=O)(=O)Nc3ccc(F)c(F)c3)c2)n1` belongs 1120 s. The figure for `CCN1CCN(CCNC(=O)Cn2ccc3c(C)nn(CC)c3c2=O)CC1` is 557 s. The figure for `O=C(Nc1nc2c(s1)CCc1ccccc1-2)c1cccc(F)c1` is 1120 s; for `O=C(NCc1ccc(Cl)cc1)C1CCCN(S(=O)(=O)c2c[nH]c(C(=O)N3CCCC3)c2)C1` (stereo not given) it is 800 s; for `Cc1ccc2nc(C(=O)NCc3cc(F)cc(F)c3)cn2c1` it is 695 s.

With `Cc1nc(CNC(=O)C2CCN(C(=O)Nc3ccc(C)c(C)c3)CC2)cs1`, the RP-LC retention time is 675 s. To `O=C(c1ccco1)N1CCN(C(=O)C2CN(S(=O)(=O)C3CC3)CC23CCCCC3)CC1` (stereo not given) belongs 758 s.

The compound `Cc1cc(C)cc(NC(=O)c2cccn2Cc2noc(C3CC3)n2)c1` returned an RP-LC retention time of 994 s. To `O=C(NCC(F)(F)F)C1CCN(C(=O)Cc2noc3ccccc23)CC1` belongs 687 s. The figure for `CN(C)C(=O)[C@H](O)[C@H](Cc1ccccc1)NC(=O)c1cc2cc(Cl)ccc2[nH]1` is 956 s; for `CCc1cc(=O)n(CC(=O)Nc2cccc(Cl)c2C)c(N2CCOCC2)n1` it is 771 s.

`O=C(N[C@H]1C[C@@H]2C[C@H]1CN2C(=O)Cc1ccc(OC(F)(F)F)cc1)c1ccccc1` displayed an RP-LC retention time of 836 s.

`COC(=O)c1ccc(NC(=O)Cn2ccc3ccc(-c4nnc(C)o4)cc32)cc1`: the RP-LC retention time stood at 776 s. To `CS(=O)(=O)N1CCC(C(=O)N2CCC3(CC2)OCCS3)CC1` belongs 625 s; to `CCn1cc(CN2CCC(C(=O)NCCCc3ccccc3)CC2)c2cc(OC)ccc21`, 765 s; to `Cc1nnc2ccc(N3CCC(C(=O)NC(C)CCc4ccccc4)CC3)nn12` (stereo not given), 779 s. Take `Cc1cc(C)nc(NS(=O)(=O)c2ccc(Nc3nc(-c4ccc(C)c(C)c4)cs3)cc2)n1`: the RP-LC retention time came to 1020 s. The figure for `Cc1ccc(CNC(=O)c2cc3n(n2)CC(C)(C(=O)NCc2ccc(F)cc2)N(C)C3=O)cc1` (stereo not given) is 741 s; for `COc1ccc(CNC(=O)N2CC=C(c3cn(C)c4ncccc34)CC2)cc1` it is 752 s. `O=C(c1ccc(Cn2cncn2)cc1)N1CCc2ccccc2C1` displayed an RP-LC retention time of 687 s. To `COc1cc(C2OC(c3cccnc3)=NN2C(C)=O)cc(OC)c1OC` (stereo not given) belongs 700 s. To `CCc1nccn1Cc1nc(-c2ccc(C)cc2)no1` belongs 646 s; to `Cc1noc(-c2ccc(OC3CN(C(=O)c4ccoc4)C3)cc2)n1`, 781 s; to `COCC(=O)NC1CCC12CCN(C(=O)CC1CCCCC1)CC2` (stereo not given), 778 s. To `O=C(CN1CCN(C(=O)c2sc3ncccc3c2-n2cccc2)CC1)N1CCCC1` belongs 607 s; to `COc1ccc(OC)c(S(=O)(=O)NC(C)c2ccccc2)c1` (stereo not given), 845 s.

For the compound `COc1ccc(CNC(=O)Cn2cnc3c(sc4nc(-c5ccccc5)ccc43)c2=O)cc1`, the RP-LC retention time was determined as 950 s. Compound `Cc1cc(C)c(S(=O)(=O)N2CC(c3nc(Cc4ccccc4)no3)C2)cc1C` showed an RP-LC retention time of 1190 s.

Compound `CCOc1ccc(-c2ccc(N3CCN(C(=O)Cc4noc5ccccc45)CC3)nn2)cc1` showed an RP-LC retention time of 672 s. In turn, `Cc1nc(-c2ccccc2)oc1CC(=O)N1CCCCCC1` returned an RP-LC retention time of 868 s. The figure for `COc1ccc2c(c1)C1(CCN(C(=O)Nc3ccccc3C)C1)C(=O)N2C` (stereo not given) is 750 s; for `CC1=C(c2ccc(Cl)cc2)S(=O)(=O)N=C1N1CCC(C(=O)NCCc2ccco2)CC1` it is 870 s; for `O=C1CN(C(=O)Cc2ccc(Cl)cc2)C2(CCCC2)CN1` it is 761 s. To `Cc1ccccc1N1CCN(C(=O)c2ccc(CN3CCN(C(C)C)C(=O)C3=O)cc2)CC1` belongs 811 s; to `CSc1ccc(-c2nc3ccc(Cl)cn3c2Nc2ccccc2C)cc1`, 954 s. To `Cc1cccc(C)c1NC(=O)Cn1ncc2c(c1=O)N(C1CC1)C(=O)CS2` belongs 714 s; to `O=C(NCCCN1CCCC1=O)c1ccc(CN2CC(=O)N3CCCC3C2=O)cc1` (stereo not given), 583 s. The compound `O=C(CNC(=O)c1c[nH]c2ccccc12)NCCC1=CCCCC1` displayed an RP-LC retention time of 710 s.

`CCNC(=O)Cc1nnc(-c2ccc(OC)cc2)o1` came in with an RP-LC retention time of 634 s. Compound `CCOC(=O)c1ncoc1-c1ccccc1C(=O)NC(C)C` yielded an RP-LC retention time of 676 s. The figure for `CC(C)NC(=O)c1ccc(OCC2CCCN2C(=O)c2ccco2)cc1` (stereo not given) is 757 s.
